In patent publication US11998554B2, “Composition comprising lipoic acid and vitamin D for the prevention and the treatment of neurodegenerative diseases and peripheral neuropathies” (URIACH ITALY S.R.L., priority 2018, dated 2024):

Key:
[1] = test system: amyloid precursor protein (APP); assay: Quantification of APP (ELISA) in astrocytes pre-treated with Fe^3+; format: cell-based, mouse; conditions: for reduction of level of APP against 300 μM Fe^3+: 300 μM Fe^3+ 6 days, then 50 μM LA, 100 nM vitD another 6 days
SOD3 [2] = assay: Western blot expression of SOD3 under oxidative conditions; format: cell-based, mouse; conditions: post-stimulation after 200 μM H2O2
ERK/MAPK [3] = assay: ERK/MAPK activity (ELISA InstantOne) under oxidative conditions; format: cell-based, mouse; conditions: for ERK/MAPK activity without H2O2 (in words): 24 hours, 50 μM LA, 100 nM vitD; for ERK activity after post-treatment following H2O2 (in words): after 200 μM H2O2
astrocytes [4] = assay: Production of ROS (superoxide anion release) under oxidative conditions; format: cell-based, mouse; conditions: for reduction of production of ROS with respect to H2O2 alone: post-treatment after 200 μM H2O2
PKA = assay: Western blot expression of p-PKA under oxidative conditions; format: cell-based, mouse; conditions: for expression of PKA without H2O2 (in words): 50 μM LA, 100 nM vitD; for expression of PKA after H2O2 (in words): post-stimulation after 200 μM H2O2
astrocytes [5] = assay: Production of ROS in astrocytes pre-treated with Fe^3+; format: cell-based, mouse; conditions: for reduction of production of ROS with respect to Fe^3+ alone: 300 μM Fe^3+ 6 days, then 50 μM LA, 100 nM vitD another 6 days
astrocytes [6] = assay: MTT cell viability in astrocytes pre-treated with Fe^3+; format: cell-based, mouse; conditions: for cell viability after post-treatment following Fe^3+ (in words): 300 μM Fe^3+ 6 days, then treatment another 6 days
cytochrome C = assay: Western blot expression of cytochrome C under oxidative conditions; format: cell-based, mouse; conditions: for expression of cytochrome C without H2O2 (in words): 50 μM LA, 100 nM vitD; for expression of cytochrome C after H2O2 (in words): stimulation after H2O2, p<0.05
ERK/MAPK [7] = assay: ERK/MAPK activity (ELISA) in astrocytes pre-treated with Fe^3+; format: cell-based, mouse; conditions: 300 μM Fe^3+ 6 days, then treatment another 6 days, p<0.05
astrocytes [8] = assay: Mitochondrial membrane potential (JC-1) under oxidative conditions; format: cell-based, mouse; conditions: 50 μM LA, 100 nM vitD; for mitochondrial potential without H2O2 (in words): p<0.05; for dissipation of the mitochondrial potential after post-treatment, with respect to H2O2 alone (in words): after 200 μM H2O2
PI3K-Akt = PI3K-Akt activity (ELISA InstantOne) under oxidative conditions; format: cell-based, mouse; conditions: for PI3K-Akt activity without H2O2 (in words): 24 hours, 50 μM LA, 100 nM vitD; for Akt activity after post-treatment following H2O2 (in words): after 200 μM H2O2
astrocytes [9] = assay: MTT cell viability under oxidative conditions (H2O2 pre-treatment); format: cell-based, mouse; conditions: for cell viability after post-treatment (in words): 200 μM H2O2 pre-treatment, then 50 μM LA, 100 nM vitD, 24 hours
iNOS = assay: Western blot expression of iNOS under oxidative conditions; format: cell-based, mouse; conditions: post-stimulation after 200 μM H2O2
[10] = test system: blood-brain barrier (BBB) experimental model; assay: Blood-brain barrier (BBB) experimental model permeability (astrocytes/HUVEC Transwell co-culture); conditions: 1440 min; 100 nM vitD, 50 μM LA alone
SOD3 [11] = assay: Western blot expression of SOD3 in astrocytes pre-treated with Fe^3+; format: cell-based, mouse; conditions: 300 μM Fe^3+ 6 days, then 50 μM LA or 100 nM vitD 6 more days, p<0.05
astrocytes [12] = assay: MTT cell viability, dose- and time-dependent, physiological conditions; format: cell-based, mouse; conditions: 1440 min, 50 μM LA, 100 nM vitD
Description: The cultures of mouse astrocytes were prepared from male and female C57BL/6 baby mice, following a known conventional technique according to the national guidelines for the use and care of laboratory animals. Basically, within 24 hours from birth, the baby mice were euthanized and the corticals were cut, […] minced, mechanically digested and left to rest for 30 minutes at ambient temperature. The cell suspension was then centrifuged at 800 rpm (revolutions per minute) for 5 minutes. The pelleted cells were resuspended in neuronal basal medium (Sigma-Aldrich), supplemented with fetal bovine serum at 5% (FBS, Gibco), penicillin/streptomycin 1% (Sigma-Aldrich) and L-glutamine 2 mM (Sigma-Aldrich), placed in multiple wells and kept in culture for 6 days prior to the treatment. […] Cell viability was determined by measuring absorbance at 570 nm with correction at 690 nm, using a spectrometer (VICTOR X4, multi-label plate reader) and calculated by comparing the results with the control. […] Firstly, the effect depending on the concentration of LA alone (comprised between 10 μM and 100 μM) on the cell viability over 24 hours (starting from 15 minutes to 1440 minutes) was analysed, with the aim of identifying the best concentration to be used. FIG. 1(a) illustrates the time-dependent and dose-response studies (ranging from 10 μM to 100 μM) of LA measured in astrocytes.

p53 [13] = assay: Activity of p53 (ELISA on nuclear extracts) under oxidative conditions; format: cell-based, mouse; conditions: for activity of p53 without H2O2 vs control (in words): 50 μM LA, 100 nM vitD, p<0.05; for activity of p53 after H2O2 (in words): stimulation after 200 μM H2O2
p53 [14] = assay: Activity of p53 (ELISA) in astrocytes pre-treated with Fe^3+; format: cell-based, mouse; conditions: 300 μM Fe^3+ 6 days, then 50 μM LA, 100 nM vitD another 6 days
astrocytes [15] = assay: Iron quantification assay in astrocytes pre-treated with Fe^3+; format: cell-based, mouse; conditions: for reduction of accumulation of iron against Fe^3+ alone: 300 μM Fe^3+ 6 days, then 50 μM LA, 100 nM vitD another 6 days

SMILES | reduction of level of APP against 300 μM Fe^3+ [1] | expression of SOD3 with respect to 200 μM of H2O2 (in words) (SOD3 [2]) | ERK/MAPK activity without H2O2 (in words) (ERK/MAPK [3]) | ERK activity after post-treatment following H2O2 (in words) (ERK/MAPK [3]) | reduction of production of ROS with respect to H2O2 alone (astrocytes [4]; 50 μM LA, 100 nM vitD) | expression of PKA without H2O2 (in words) (PKA) | expression of PKA after H2O2 (in words) (PKA) | reduction of production of ROS with respect to Fe^3+ alone (astrocytes [5]) | cell viability after post-treatment following Fe^3+ (in words) (astrocytes [6]) | expression of cytochrome C without H2O2 (in words) (cytochrome C) | expression of cytochrome C after H2O2 (in words) (cytochrome C) | activation of ERK/MAPK with respect to 300 μM Fe^3+ (in words) (ERK/MAPK [7]) | mitochondrial potential without H2O2 (in words) (astrocytes [8]) | dissipation of the mitochondrial potential after post-treatment, with respect to H2O2 alone (in words) (astrocytes [8]) | PI3K-Akt activity without H2O2 (in words) (PI3K-Akt) | Akt activity after post-treatment following H2O2 (in words) (PI3K-Akt) | cell viability after post-treatment (in words) (astrocytes [9]) | expression of iNOS with respect to 200 μM of H2O2 (in words) (iNOS) | absorption capacity through the blood-brain barrier (basolateral volume analysis) with respect to the control [10] | expression of SOD3 after Fe^3+ (in words) (SOD3 [11]) | also measured
O=C(O)CCCCC1CCSS1 (racemic) [LA, alpha-lipoic acid] | about 63% | significantly reduced | activating ERK and Akt mediators | nullified the effects observed previously | about 43% | significant increase | restored the mechanism | about 68% | cell viability leads to control values | results similar to those obtained for p53 | reduced | significant reduction | significant increase of the red fluorescence | significantly inverted | activating ERK and Akt mediators | nullified the effects observed previously | cell viability increased significantly | significantly reduced | ~40.5% | reduced | production of ROS without H2O2 (in words) (astrocytes [4]; 50 μM LA, 100 nM vitD, no H2O2, p>0.05 vs control): maintaining the production of ROS below the physiological level; cell viability, maximum effect with respect to the control (astrocytes [12]): about 66%; activity of p53 without H2O2 vs control (in words) (p53 [13]): reduction of the activity of p53; activity of p53 after H2O2 (in words) (p53 [13]): reduced it significantly; reduction of activation of p53 with respect to 300 μM Fe^3+ (p53 [14]): about 84%; reduction of accumulation of iron against Fe^3+ alone (astrocytes [15]): about 81%
[Fe+3] [Fe^3+] | – | – | – | – | – | – | – | – | – | – | – | – | – | – | – | – | – | – | – | – | increase of level of APP with respect to the control ([1]; 300 μM Fe^3+, 6 days): about 43%; increase of production of intracellular ROS with respect to the control (astrocytes [5]; 300 μM Fe^3+, 6 days): about 60%; reduction of cell viability with respect to the control (astrocytes [6]; 300 μM Fe^3+, 6 days): about 23%; increase of intracellular iron accumulation with respect to the control (astrocytes [15]; 300 μM Fe^3+, 6 days): about 69%
OO [H2O2] | – | – | – | – | – | – | – | – | – | – | – | – | – | – | – | – | – | – | – | – | reduction of activity of ERK with respect to the control (ERK/MAPK [3]; 200 μM H2O2): about 6%; increase of production of intracellular ROS with respect to the control (astrocytes [4]; 200 μM stressor alone): about 30%; reduction of activity of Akt with respect to the control (PI3K-Akt; 200 μM H2O2): ~7%; reduction of cell viability with respect to the control (astrocytes [9]; 200 μM H2O2): 46%
C=C1CC[C@H](O)C/C1=C/C=C1\CCC[C@]2(C)[C@@H]([C@H](C)CCCC(C)C)CC[C@@H]12 [vitD, cholecalciferol] | ~55% | significantly reduced | activating ERK and Akt mediators | nullified the effects observed previously | ~57% | significant increase | restored the mechanism | ~83% | cell viability leads to control values | results similar to those obtained for p53 | reduced | significant reduction | significant increase of the red fluorescence | significantly inverted | activating ERK and Akt mediators | nullified the effects observed previously | cell viability increased significantly | significantly reduced | about 49.5% | reduced | cell viability, maximum effect with respect to the control (astrocytes [12]): about 22%; activity of p53 without H2O2 vs control (in words) (p53 [13]): reduction of the activity of p53; activity of p53 after H2O2 (in words) (p53 [13]): reduced it significantly; reduction of activation of p53 with respect to 300 μM Fe^3+ (p53 [14]): ~88%; reduction of accumulation of iron against Fe^3+ alone (astrocytes [15]): ~88%
